From patent US9445596B2, “Small molecule compounds for the control of nematodes” (California Institute of Technology, priority 2011, dated 2016)
“Also recorded” adds a separate entry of the source.

Assays:
[1] = tested on: several of the tested nematode species; experiment: Retention assay, several nematode species; assay type: in vivo; conditions: 1 nM, 1 μM and 1 mM tested
Procedure: OP50 E. coli was grown on a standard 5 cm agar plate (made with standard Nematode Growth Medium). The bacterial lawn was 16 mm in diameter and was grown overnight at 20° C. before being used in trials. Two 4 mm spots (0.6 μL) were placed on opposite sides of the bacterial lawn (using a transparent template to guide spot placement), and several minutes elapsed for the liquid to settle in before placing nematodes down on the assay. Recording began immediately upon worm placement. 0.6 μL of the control was placed on one side of the lawn, and 0.6 μL of the experimental cue was placed on the other side of the lawn, changing the location of the cue throughout trials between left/right and top/bottom to avoid bias.
Nematodes were isolated by gender at the L4 stage the day before being used in trials as developed adults. Worms were evenly divided and placed at two points equidistant from the foci of the scoring region. Trials were recorded for 20 minutes, and frames were collected for analysis at 1 frame per second. Results were averaged from at least three different trials. For every nematode species in this study, a different total number of worms (using water in both scoring regions) was tested to determine the minimum number of worms necessary for consistent unbiased results over a 20 minute trial. The total number of worms used in the multiple species assays depended on that species' optimal parameters. 10 worms were used for P. redivivus males and females, 20 worms were used for C. elegans males and O. dolichuridae males, and 14 worms were used for S. glaseri males. The Automated Software was used to compare worm occupancy in each scoring region over time, and the Chemotaxis Index (Bargmann et al., Cell 74:515-27 (1993), which is hereby incorporated by reference in its entirety) was adapted to score preference or avoidance to each ascaroside.
A video camera attached to the microscope produced a digital video stream, which was then analyzed. The ratio of the time the average worm spent in each region of interest was calculated for every trial. For ease of implementation, all worms in a single experiment were assumed to be roughly the same size. Thus worm pixels were counted instead of whole worms, allowing fractions of a worm in the region of interest to be taken into account. It also eliminated the need for a shape-based worm identification algorithm, and allowed each frame to be analyzed independently. A band-pass filter was applied to each frame to eliminate the effect of uneven lighting and also accentuate the worms against the background. The worm was then identified after thresholding the filtered image. Throughout each experiment, the locations and sizes of the regions of interest were known. Through the filtering described above, it is known which pixels are occupied by worms and which ones are not. Thus, the ratio of worm-pixels to all pixels inside the region of interest can be calculated to produce the worm-occupancy ratio. This calculation was done for every frame, giving a plot output of worm-occupancy ratio vs. time for each region.

C. elegans males = experiment: Attraction assay (long-range, point source); assay type: in vivo; conditions: point source on 10 cm plate
Procedure: 10 cm standard chemotaxis plates were prepared (Bargmann et al., Cell 74:515-27 (1993), which is hereby incorporated by reference in its entirety) and stored at 4° C. until the day before use. Standard 1 cm-diameter copper pipes were sectioned into 1 cm-tall segments to use for the holding chambers. The females/hermaphrodites were isolated overnight, washed 3 times in M9 buffer, and then allowed to wander on a plate pre-conditioned with 50 uL of 1000× streptomycin for 2 hours to kill any bacteria that might produce a false positive attractant. The nematodes were then washed 3 times, and the supernatant from the last wash was placed in a copper chamber, as the control, 1 cm from the border of the 10 cm plate. The nematodes were suspended in M9 within the copper chamber, 1 cm from the border opposite the control chamber. After 6 hours, they were subsequently removed and replaced with 3 μL of 1M sodium azide. 100 C. elegans adult males were isolated overnight, washed several times in ddH2O, and placed at the center of the agar plate. After several hours, males paralyzed within 2 cm of each region were scored. The Chemotaxis Index (Bargmann et al., Cell 74:515-27 (1993), which is hereby incorporated by reference in its entirety) was then used to score male chemotaxis to either point source.

[2] = tested on: C. elegans hermaphrodites and males; conditions: cited from earlier work
C. elegans = conditions: shown previously; cited from earlier work
[3] = tested on: P. pacificus strain RSB020; experiment: Mouth-form dimorphism assay; assay type: in vivo, Pristionchus pacificus
Procedure: Mouth-form dimorphism assays were performed using P. pacificus strain RSB020. The synthetic compounds dissolved in ethanol (0.5 mM) were diluted with water to make 100 μl solution and subsequently added to 3 mL NGM-agar (1 μM final concentration). The assay plates were seeded with 50 μl OP50 culture in LB medium and incubated overnight at 20° C. to allow bacterial growth. Each replicate included the progeny of two mothers, which were picked as adult hermaphrodites of a consistent age (carrying 4-6 eggs) and which were all from the same P. pacificus culture plate. Following the placement of mothers on assay plates, plates were kept at 20° C. for six days, such that the entire broods were adults at the time of screening. A random sample of 50 hermaphrodite progeny was screened per plate. All animals were screened by differential interference contrast (DIC) microscopy on a Zeiss Axiskop. The following discrete characters were used to discriminate eurystomatous from stenostomatous individuals, respectively: (1) claw-shaped vs. flint-shaped (i.e. dorsoventrally symmetrical) dorsal tooth; (2) presence vs. absence of a subventral tooth; (3) strongly vs. weakly sclerotized stomatal walls. No intermediate mouth-forms were observed. Experiments were conducted in triplicate for each treatment. In assays of responses to compounds of several concentrations (1, 0.3, 0.1, 0.03, 0.01 μM final concentrations), experiments were performed as described above, with the following modifications. To allow greater resolution of responses to lower concentrations, 60 randomly screened individuals in each of five replicates per concentration per compound were assayed. All concentration-curve experiments were performed in parallel using mothers picked randomly from the same two source populations. To prepare large numbers of individual mothers for these experiments, source populations were established from virgin hermaphrodites to constrain the presence of males and were conditioned to well-fed and ambient conditions for at least one generation before mothers were picked for the assays.

P. pacificus = experiment: Dauer formation assay; assay type: in vivo, Pristionchus pacificus; conditions: synthetic samples; first assayed at 1 μM
Procedure: Dauer formation assays were performed as described in Ogawa et al., Curr. Biol. 19:67-71 (2009), which is hereby incorporated by reference in its entirety, using heat- or kanamycin-killed E. coli OP50. Synthetic compounds were dissolved in ethanol (0.5 mM, stock solution) and combined with water to make a […] and subsequently added to 3 mL NGM-agar without peptone ([…], 0.3, 0.1 μM final concentrations).

[4] = tested on: C. elegans hermaphrodites; experiment: Quadrant chemotaxis assay; assay type: in vivo; conditions: see FIGS. 48A-B (spot attraction and quadrant chemotaxis assays); wild-type hermaphrodites
Procedure: Chemotaxis to both non-indole and indole ascarosides was assessed on 10 cm four-quadrant petri plates (Wicks et al., Dev. Biol. 221:295-307 (2000), which is hereby incorporated by reference in its entirety). Each quadrant was separated from adjacent ones by plastic spacers (FIG. 1B). Pairs of opposite quadrants were filled with nematode growth medium (NGM) agar containing either indole ascarosides or non-indole ascarosides at different concentrations. Animals were washed gently in a S-basal buffer, placed in the center of a four-quadrant plate with ascarosides in alternating quadrants, and scored after 15 minutes and 30 minutes. A chemotaxis index was calculated as: (the number of animals on ascaroside quadrants minus the number of animals on buffer quadrants)/(total number of animals).
Chemotaxis to hbas#3 was assessed on 10 cm four-quadrant petri plates (Wicks et al., Dev. Biol. 221:295-307 (2000), which is hereby incorporated by reference in its entirety). Each quadrant was separated from adjacent ones by plastic spacers. Pairs of opposite quadrants were filled with nematode growth medium (NGM) agar containing different concentrations of hbas#3. Animals were washed gently in an S-basal buffer and placed in the center of a four-quadrant plate with ascarosides in alternating quadrants, and scored after 15 minutes and 30 minutes. A chemotaxis index was calculated as: (the number of animals on ascaroside quadrants minus the number of animals on buffer quadrants)/(total number of animals).

[5] = tested on: C. elegans hermaphrodites and males; experiment: Spot attraction assay; assay type: in vivo
Procedure: The spot attraction assays were conducted according to a previously reported method (Pungaliya et al., PNAS 106:7708-13 (2009); Srinivasan et al., Nature 454:1115-18 (2008), which are hereby incorporated by reference in their entirety). For both C. elegans hermaphrodites and males, 50-60 worms were harvested daily at the fourth larval stage (L4) and stored segregatedly by sex at 20° C. overnight, to be used as young adults the following day. For the competition experiments, two conditions were used: 120 nM ascr#3 and 10 nM icas#3 (Condition 1), or 12 μM ascr#3 and 1 μM icas#3 (Condition 2) in water containing 10% ethanol. Aliquots were stored at −20° C. in 20 μL tubes. 10% ethanol in water was used as control.
Attraction assays with hbas#3 were conducted as previously reported (Srinivasan et al., Nature 454:1115-18 (2008); Pungaliya et al., Proc. Natl. Acad. Sci. U.S.A. 106:7708-13 (2009), which are hereby incorporated by reference in their entirety). For the attraction assays, 50-60 hermaphrodite worms were harvested daily at the early fourth larval stage (L4) and stored at 20° C. overnight to be used as young adults the following day. Hbas#3 was dissolved in water containing 10% ethanol. Aliquots were stored at −20° C. in 20 μL tubes. 10% ethanol in water was used as control.

[6] = literature (Pungaliya 2009; Srinivasan 2008)
[7] = synthetic samples, first assayed at 1 μM

## CC1O[C@@H](O[C@H](C)CCCC/C=C/C(=O)O)[C@@H](O)C[C@H]1O (some centres unmarked) [ascr#3]
[1]
  preference for areas conditioned by the ascaroside: preferred
C. elegans males
  lowest amount eliciting male attraction (as low as): 5 femtomol
  male attraction from a distance / chemotaxis towards a point source: chemotax towards
[2]; from 1 μM concentration, previous study (Srinivasan 2008)
  most active amount for attraction in C. elegans: ~1 pmol
[2]; high dauer-inducing concentrations, previous studies
  response of social and solitary hermaphrodites: strongly deter
[2]; [6]
  attraction of males: strongly attracts males
  response of hermaphrodites: repels hermaphrodites
C. elegans
  promotion of dauer entry: individually promote dauer entry

## C[C@H](CC/C=C/C(=O)O)O[C@@H]1O[C@@H](C)[C@H](O)C[C@H]1O [ascr#7]
[1]
  preference for areas conditioned by the ascaroside: preferred

## C[C@H](CCCCC(=O)O[C@@H]1C[C@@H](O)[C@H](O[C@H](C)CCCCC(=O)O)O[C@H]1C)O[C@@H]1O[C@@H](C)[C@H](O)C[C@H]1O [dasc#1, (R)-6-(((2R,3R,5R,6S)-5-(((R)-6-(((2R,3R,5R,6S)-3,5-dihydroxy-6-methyltetrahydro-2H-pyran-2-yl)oxy)heptanoyl)oxy)-3-hydroxy-6-methyltetrahydro-2H-pyran-2-yl)oxy)heptanoic acid]
[3]; [7]
  induction of the eurystomatous mouth form: regulates adult morphology; also recorded: strongly induce the eurystomatous mouth form
P. pacificus
  dauer induction: inactive in the dauer formation assay

## C[C@H](CCCC/C=C/C(=O)O)O[C@@H]1O[C@@H](C)[C@H](OC(=O)c2ccc(O)cc2)C[C@H]1O [hbas#3, (8R)-(3′R-Hydroxy-5′R-(4-hydroxybenzoyloxy)-6′S-methyl-(2H)-tetrahydropyran-2′-yloxy)non-(2E)-enoic acid]
[4]
  lowest concentration with strong attraction of C. elegans (as low as): 10 femtomolar
[5]; wild-type (N2) hermaphrodites, dose dependent manner
  attraction in the spot attraction assay: attracted

## C[C@H](CCCCC(=O)O)O[C@@H]1O[C@@H](C)[C@H](OC(=O)c2c[nH]c3ccccc23)C[C@H]1O [icas#1]
[5]; 1 pmol, N2 hermaphrodites and him-5 males
  attraction in the spot attraction assay: attractive to both C. elegans sexes
[5]; high concentrations, males and hermaphrodites
  attraction in the spot attraction assay: attracted both males and hermaphrodites

## C[C@H](CCC(=O)O[C@@H](CNC(=O)CCC(=O)O)c1ccccc1)O[C@@H]1O[C@@H](C)[C@H](O)C[C@H]1O [pasc#9, 4-(((R)-2-(((R)-4-(((2R,3R,5R,6S)-3,5-dihydroxy-6-methyltetrahydro-2H-pyran-2-yl)oxy)pentanoyl)oxy)-2-phenylethyl)amino)-4-oxobutanoic acid]
[3]; high concentrations
  induction of the eurystomatous mouth form: weaker induction of the eurystomatous mouth form

## C[C@H](CCC(=O)O)O[C@@H]1O[C@@H](C)[C@H](OC(=O)[C@H](C)CNC(N)=O)C[C@H]1OC(=O)CCCCO[C@@H]1O[C@@H](C)[C@H](O)C[C@H]1O [ubas#1, (R)-4-(((2R,3R,5R,6S)-3-((5-(((2R,3R,5R,6S)-3,5-dihydroxy-6-methyltetrahydro-2H-pyran-2-yl)oxy)pentanoyl)oxy)-6-methyl-5-(((R)-2-methyl-3-ureidopropanoyl)oxy)tetrahydro-2H-pyran-2-yl)oxy)pentanoic acid]
[3]; [7]
  induction of the eurystomatous mouth form: inactive
